# In ChEMBL document CHEMBL1125716, “1,2,4-Triazolo[4,3-a]pyrazine derivatives with human renin inhibitory activity. 3.1 Synthesis and biological properties of aminodeoxystatine and difluorostatone derivatives” (J Med Chem, 1991):
# Biological target: T1, Renin (Homo sapiens, UniProt P00797)
# T1 sequence (P00797 whole entry): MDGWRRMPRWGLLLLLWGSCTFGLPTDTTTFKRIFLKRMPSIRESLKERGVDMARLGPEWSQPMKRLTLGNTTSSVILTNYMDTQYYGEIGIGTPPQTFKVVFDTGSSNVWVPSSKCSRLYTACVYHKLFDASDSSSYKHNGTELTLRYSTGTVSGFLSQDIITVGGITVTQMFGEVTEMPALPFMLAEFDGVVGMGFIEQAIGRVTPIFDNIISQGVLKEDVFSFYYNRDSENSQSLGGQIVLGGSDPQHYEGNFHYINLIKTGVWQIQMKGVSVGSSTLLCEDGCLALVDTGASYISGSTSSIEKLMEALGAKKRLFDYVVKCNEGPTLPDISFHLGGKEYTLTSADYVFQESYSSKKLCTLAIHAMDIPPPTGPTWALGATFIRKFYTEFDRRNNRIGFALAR
# Assay: Inhibition of human renin
row,Structure (SMILES),IC50
1,CCCc1nc(-c2cccnc2)cn2c(C(Cc3cccnc3)C(=O)NC(CC3CCCCC3)C(=O)C(F)(F)C(=O)NCCC(C)C)nnc12 (stereo unspecified),1.8 nM
2,CC(C)CCNC(=O)C(F)(F)C(=O)C(CC1CCCCC1)NC(=O)Cc1nnc2c(CC(C)C)nc(-c3ccccc3)cn12 (stereo unspecified),38 nM
3,CCCc1nc(-c2cccnc2)cn2c(CC(=O)NC(CC3CCCCC3)C(=O)C(F)(F)C(=O)NCC(C)CC)nnc12 (stereo unspecified),1.7 nM
4,CC(C)Cc1nc(-c2ccccc2)cn2c(CC(=O)NC(CC3CCCCC3)C(=O)C(F)(F)C(=O)NC(CC(C)C)C(=O)NCc3ccccn3)nnc12 (stereo unspecified),1.9 nM
5,CCCc1nc(-c2cccnc2)cn2c(CC(=O)NC(CC3CCCCC3)C(=O)C(F)(F)C(=O)NCCC(C)C)nnc12 (stereo unspecified),1.6 nM
6,CC(C)Cc1nc(-c2ccccc2)cn2c(C(Cc3cccnc3)C(=O)NC(CC(C)CC3CCCCC3)C(O)CC(=O)NC(CC(C)C)C(=O)NCc3cccc(CN)c3)nnc12 (stereo unspecified),1.7 nM
7,CCCc1nc(-c2cccnc2)cn2c(CC(=O)NC(CC3CCCCC3)C(=O)C(F)(F)C(=O)NCC)nnc12 (stereo unspecified),1.4 nM
8,CC(C)Cc1nc(-c2ccccc2)cn2c([C@H](Cc3cccnc3)C(=O)N[C@@H](CC3CCCCC3)C(N)CC(=O)NC(CC(C)C)C(=O)NCc3ccccn3)nnc12 (stereo in doubt; 13a),3.9 nM
9,CC(C)Cc1nc(-c2ccccc2)cn2c([C@H](Cc3cccnc3)C(=O)N[C@@H](CC3CCCCC3)C(N)CC(=O)NC(CC(C)C)C(=O)NCc3ccccn3)nnc12 (stereo in doubt; 13b),100 nM
10,CC(C)Cc1nc(-c2ccccc2)cn2c([C@@H](Cc3cccnc3)C(=O)N[C@H](CC3CCCCC3)C(N)CC(=O)NC(CC(C)C)C(=O)NCc3ccccn3)nnc12 (stereo in doubt; 13c),6.1 nM
11,CC(C)Cc1nc(-c2ccccc2)cn2c([C@@H](Cc3cccnc3)C(=O)N[C@H](CC3CCCCC3)C(N)CC(=O)NC(CC(C)C)C(=O)NCc3ccccn3)nnc12 (stereo in doubt; 13d),120 nM
